Columns and labels:
hTGR5 = target: T1, hTGR5 (Homo sapiens, UniProt Q8TDU6); test: TGR5/CRE Luciferase Assay (hTGR5); type: cell-based; details: for EC50: HEK 293 cells co-transfected with pCMV tag4b-TGR5h and pCRE TA-Luciferase, overnight incubation; for hTGR5 % trans: percentage of the 10 μM LCA value, HEK 293 cells transfected with hTGR5
T1 construct: expressed in transfected cells; host or cells: HEK293 cells, transiently co-transfected with the pCRE TA-Luciferase reporter
T1 sequence (Q8TDU6 1-330): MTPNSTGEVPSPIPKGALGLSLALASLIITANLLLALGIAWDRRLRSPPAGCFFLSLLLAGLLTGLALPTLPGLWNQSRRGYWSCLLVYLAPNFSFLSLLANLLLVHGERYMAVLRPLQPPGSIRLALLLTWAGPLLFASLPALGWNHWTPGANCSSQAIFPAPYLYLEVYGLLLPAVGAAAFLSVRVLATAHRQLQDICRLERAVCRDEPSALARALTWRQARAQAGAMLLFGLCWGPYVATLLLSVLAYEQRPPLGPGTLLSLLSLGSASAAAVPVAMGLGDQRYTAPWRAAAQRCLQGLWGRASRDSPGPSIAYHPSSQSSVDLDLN
Procedure, shortened: (§1)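 cAMP-dependent luciferase luminescence was measured after overnight compound exposure (duplicate concentration series) and fitted to a four-parameter logistic equation. Cells: HEK293 transiently co-expressing hTGR5 or mTGR5 with a CRE reporter; lithocholic acid at 10 μM was the reference agonist.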

mTGR5 = target: T2, mTGR5 (Mus musculus, UniProt Q80SS6); test: TGR5/CRE Luciferase Assay (mTGR5); type: cell-based; details: for EC50: HEK 293 cells co-transfected with pCMV AC6-TGR5m and pCRE TA-Luciferase, overnight incubation; for mTGR5 % trans: percentage of the 10 μM LCA value, HEK 293 cells transfected with mTGR5
T2 construct: expressed in transfected cells; host or cells: HEK293 cells, transiently co-transfected with the pCRE TA-Luciferase reporter
T2 sequence (Q80SS6 1-329): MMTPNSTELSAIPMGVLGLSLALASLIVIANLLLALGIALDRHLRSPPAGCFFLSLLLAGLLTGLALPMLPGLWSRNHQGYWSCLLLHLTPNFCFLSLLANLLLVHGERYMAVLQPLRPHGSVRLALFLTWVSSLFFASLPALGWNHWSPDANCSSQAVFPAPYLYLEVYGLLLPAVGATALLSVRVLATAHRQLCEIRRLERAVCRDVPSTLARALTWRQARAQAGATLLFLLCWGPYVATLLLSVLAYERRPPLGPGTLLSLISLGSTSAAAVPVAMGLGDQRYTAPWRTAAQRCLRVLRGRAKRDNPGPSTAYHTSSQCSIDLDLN
Procedure, shortened: as §1

| EC50 (hTGR5) [µM] | hTGR5 % trans (hTGR5) [%] | EC50 (mTGR5) [µM] | mTGR5 % trans (mTGR5) [%] | Compound |
| --- | --- | --- | --- | --- |
| 1.1 | 21 | 12.4 | 18 | CC1=C(C(=O)OCc2ccccc2)C(c2ccc(Cl)cc2)CC(=O)N1Cc1nc(C)no1 (centres unmarked) [Compound 59, Benzyl 4-(4-chlorophenyl)-6-methyl-1-[(3-methyl-1,2,4-oxadiazol-5-yl)methyl]-2-oxo-3,4-dihydropyridine-5-carboxylate] |
| 0.08 | 99 | 0.2 | 92 | COc1ccccc1COC(=O)C1=C(C)N(CC2OCCO2)C(=O)CC1c1ccc(Cl)cc1 (centres unmarked) [Compound 72, (2-methoxyphenyl)methyl 4-(4-chlorophenyl)-1-(1,3-dioxolan-2-ylmethyl)-6-methyl-2-oxo-3,4-dihydropyridine-5-carboxylate] |
| 0.2 | 94 | 0.8 | 85 | COCCCN1C(=O)CC(c2ccc(Cl)cc2)C(C(=O)OCc2ccccc2OC)=C1C (centres unmarked) [Compound 71, (2-methoxyphenyl)methyl 4-(4-chlorophenyl)-1-(3-methoxypropyl)-6-methyl-2-oxo-3,4-dihydropyridine-5-carboxylate] |
| 0.4 | 71 | 0.5 | 71 | COCCN1C(=O)CC(c2ccc(Cl)cc2)C(C(=O)OCc2ccccc2F)=C1C (centres unmarked) [Example 84, (2-fluorophenyl)methyl 4-(4-chlorophenyl)-1-(2-methoxyethyl)-6-methyl-2-oxo-3,4-dihydropyridine-5-carboxylate] |
| 2.2 | 50 | 2 | 57 | CC1=C(C(=O)OCc2ccccc2)C(c2ccc(Cl)cc2)CC(=O)N1CC#N (centres unmarked) [Compound 63, Benzyl 4-(4-chlorophenyl)-1-(cyanomethyl)-6-methyl-2-oxo-3,4-dihydropyridine-5-carboxylate] |
| 0.7 | 80 | 0.7 | 73 | CC1=C(C(=O)OCc2ccc(C)cc2)C(c2ccc(Cl)cc2)CC(=O)N1C (centres unmarked) [Example 79, p-tolylmethyl 4-(4-chlorophenyl)-1,6-dimethyl-2-oxo-3,4-dihydropyridine-5-carboxylate] |
| 7.6 | 30 | 10.3 | 18 | CC1=C(C(=O)OCc2ccccc2)C(c2ccccc2)CC(=O)N1 (centres unmarked) [Compound 14, 2-Methyl-6-oxo-4-phenyl-1,4,5,6-tetrahydro-pyridine-3-carboxylic acid benzyl ester] |
| 1.3 | 82 | 1.4 | 73 | C=C(C)CN1C(=O)CC(c2ccc(Cl)cc2)C(C(=O)OCc2ccccc2)=C1C (centres unmarked) [Compound 39, Benzyl 4-(4-chlorophenyl)-6-methyl-1-(2-methylallyl)-2-oxo-3,4-dihydropyridine-5-carboxylate] |
| 10 | 17 | 8.5 | 18 | COc1ccccc1C1CC(=O)NC(C)=C1C(=O)OCc1ccccc1 (centres unmarked) [Compound 4, 4-(2-Methoxy-phenyl)-2-methyl-6-oxo-1,4,5,6-tetrahydro-pyridine-3-carboxylic acid benzyl ester] |
| 0.3 | – | 0.6 | – | COCCN1C(=O)CC(c2ccc(Cl)cc2)C(C(=O)OCc2ccccc2)=C1C (centres unmarked) [Compound 37, Benzyl 4-(4-chlorophenyl)-1-(2-methoxyethyl)-6-methyl-2-oxo-3,4-dihydropyridine-5-carboxylate] |
| 2.3 | 69 | 5.9 | 42 | CC1=C(C(=O)OCc2ccccc2)C(c2ccc(Cl)cc2)CC(=O)N1CCS(C)(=O)=O (centres unmarked) [Compound 62, Benzyl 4-(4-chlorophenyl)-6-methyl-1-(2-methylsulfonylethyl)-2-oxo-3,4-dihydropyridine-5-carboxylate] |
| 0.5 | – | 0.6 | – | COCCN1C(=O)CC(c2ccc(Cl)cc2)C(C(=O)OCc2ccc(-c3ccccc3)cc2)=C1C (centres unmarked) [Example 108, (4-phenylphenyl)methyl 4-(4-chlorophenyl)-1-(2-methoxyethyl)-6-methyl-2-oxo-3,4-dihydropyridine-5-carboxylate] |
| 0.017 | 105 | – | 102 | COc1ccccc1COC(=O)C1=C(C)N(C[C@@H]2CCCO2)C(=O)C[C@H]1c1ccc(Cl)nc1 [Example 163, (2-Methoxyphenyl)methyl-(4S)-4-(6-chloro-3-pyridyl)-6-methyl-2-oxo-1-[[(2S)-tetra hydrofuran-2-yl]methyl]-3,4-dihydropyridine-5-carboxylate] |
| 2.9 | 71 | 12.3 | 73 | COCCN1C(=O)CC(c2ccc(Cl)cc2)C(C(=O)N2CCCc3ccccc32)=C1C (centres unmarked) [Example 77, 4-(4-chlorophenyl)-5-(3,4-dihydro-2H-quinoline-1-carbonyl)-1-(2-methoxyethyl)-6-methyl-3,4-dihydropyridin-2-one] |
| 1.5 | 16 | 3.9 | 12 | O=C(NCc1ccccc1)C1=CN(CC2CC2)C(=O)CC1c1ccc(Cl)cc1 (centres unmarked) [Compound 30, N-benzyl-4-(4-chlorophenyl)-1-(cyclopropylmethyl)-2-oxo-3,4-dihydropyridine-5-carboxamide] |
| 0.3 | 105 | 0.4 | 104 | CCOC(=O)CN1C(=O)CC(c2ccc(Cl)cc2)C(C(=O)OCc2ccccc2OC)=C1C (centres unmarked) [Compound 69, (2-methoxyphenyl)methyl 4-(4-chlorophenyl)-1-(2-ethoxy-2-oxo-ethyl)-6-methyl-2-oxo-3,4-dihydropyridine-5-carboxylate] |
| 1.1 | 51 | 1.2 | 49 | CCCC1CC(=O)N(CCOC)C(C)=C1C(=O)OCc1ccccc1OC (centres unmarked) [Example 121, (2-methoxyphenyl)methyl 1-(2-methoxyethyl)-6-methyl-2-oxo-4-propyl-3,4-dihydropyridine-5-carboxylate] |
| 0.13 | 101 | 0.13 | 102 | CC1=C(C(=O)OCc2ccc(OCCS(=O)(=O)O)cc2)[C@@H](c2ccc(Cl)nc2)CC(=O)N1C[C@@H]1CCCO1.N (racemic) [Example 153, Ammonium,2-[4-[[(4S)-4-(6-chloro-3-pyridyl)-6-methyl-2-oxo-1-[[(2R)-tetrahydrofuran-2-yl]methyl]-3,4-dihydropyridine-5-carbonyl]oxymethyl]phenoxy]ethanesulfonate and ammonium,2-[4-[[(4R)-4-(6-chloro-3-pyridyl)-6-methyl-2-oxo-1-[[(2S)-tetrahydrofuran-2-yl]methyl]-3,4-dihydropyridine-5-carbonyl]oxymethyl]phenoxy]ethanesulfonate] |
| 13.5 | 42 | 14.4 | 32 | CC1=C(C(=O)OCc2ccccc2)C(c2ccc(Cl)cc2)CC(=O)N1CC(N)=O (centres unmarked) [Compound 60, Benzyl 1-(2-amino-2-oxo-ethyl)-4-(4-chlorophenyl)-6-methyl-2-oxo-3,4-dihydropyridine-5-carboxylate] |
